This passage reports IC50 results from patent publication EP3623369A1, “NOVEL MORPHOLINYL AMINE COMPOUNDS FOR THE TREATMENT OF AUTOIMMUNE DISEASE” (F. Hoffmann-La Roche AG, priority 2018, dated 2020).

The target of the assay is T1, human TLR8 (Homo sapiens, UniProt Q9NR97).
T1 sequence (Q9NR97 27-1041): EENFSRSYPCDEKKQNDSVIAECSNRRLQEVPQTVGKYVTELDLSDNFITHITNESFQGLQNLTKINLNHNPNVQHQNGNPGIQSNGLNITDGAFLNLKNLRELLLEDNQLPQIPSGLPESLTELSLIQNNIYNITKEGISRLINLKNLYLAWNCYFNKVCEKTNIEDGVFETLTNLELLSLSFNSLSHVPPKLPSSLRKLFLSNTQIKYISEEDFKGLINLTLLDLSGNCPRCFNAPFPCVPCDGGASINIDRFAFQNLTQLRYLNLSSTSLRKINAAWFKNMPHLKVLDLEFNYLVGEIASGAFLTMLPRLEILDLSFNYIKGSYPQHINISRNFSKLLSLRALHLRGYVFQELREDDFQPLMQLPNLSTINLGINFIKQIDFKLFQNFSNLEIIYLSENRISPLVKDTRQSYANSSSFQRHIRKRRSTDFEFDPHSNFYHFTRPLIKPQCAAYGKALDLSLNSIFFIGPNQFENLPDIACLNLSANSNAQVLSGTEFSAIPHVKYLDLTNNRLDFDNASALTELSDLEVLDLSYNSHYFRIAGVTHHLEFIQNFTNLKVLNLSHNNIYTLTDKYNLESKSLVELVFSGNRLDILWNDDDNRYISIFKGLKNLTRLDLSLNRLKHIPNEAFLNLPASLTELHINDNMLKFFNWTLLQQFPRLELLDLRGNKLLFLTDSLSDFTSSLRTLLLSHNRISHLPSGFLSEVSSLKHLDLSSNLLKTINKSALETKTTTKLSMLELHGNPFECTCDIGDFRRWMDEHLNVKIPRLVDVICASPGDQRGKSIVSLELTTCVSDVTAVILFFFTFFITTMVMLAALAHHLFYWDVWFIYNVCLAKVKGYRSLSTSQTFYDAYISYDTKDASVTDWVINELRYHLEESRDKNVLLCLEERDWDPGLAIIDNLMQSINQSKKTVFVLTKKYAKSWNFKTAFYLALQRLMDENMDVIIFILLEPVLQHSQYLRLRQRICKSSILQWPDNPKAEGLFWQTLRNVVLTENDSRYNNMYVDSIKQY
The assay can be described thus: HEK293-Blue-hTLR-8 cells assay (SEAP reporter, R848 stimulation). The format is cell-based. Conditions: HEK293-Blue-hTLR8 cells, R848, 20 hrs; 0.003 is the lowest tested concentration; read-out: HEK/hTLR8 IC50. How it is done: The following tests were carried out in order to determine the activity of the compounds of formula (I) or (Ia) in HEK293-Blue-hTLR-7/8/9 cells assay.
HEK293-Blue-hTLR-8 cells assay:
A stable HEK293-Blue-hTLR-8 cell line was purchased from InvivoGen (Cat.#: hkb-htlr8, San Diego, California, USA). These cells were originally designed for studying the stimulation of human TLR8 by monitoring the activation of NF-κB. A SEAP (secreted embryonic alkaline phosphatase) reporter gene was placed under the control of the IFN-β minimal promoter fused to five NF-κB and AP-1-binding sites. The SEAP was induced by activating NF-κB and AP-1 via stimulating HEK-Blue hTLR8 cells with TLR8 ligands. Therefore the reporter expression was declined by TLR8 antagonist under the stimulation of a ligand, such as R848, for incubation of 20 hrs. The cell culture supernatant SEAP reporter activity was determined using QUANTI-Blue™ kit (Cat.#: rep-qb1, Invivogen, San Diego, Ca, USA) at a wavelength of 640 nm, a detection medium that turns purple or blue in the presence of alkaline phosphatase.
HEK293-Blue-hTLR8 cells were incubated at a density of 250,000∼450,000 cells/mL in a volume of 170 µL in a 96-well plate in Dulbecco's Modified Eagle's medium (DMEM) containing 4.5 g/L glucose, 50 U/mL penicillin, […], […], 2 mM L-glutamine, 10% (v/v) heat-inactivated fetal bovine serum with addition of 20 µL test compound in a serial dilution in the presence of final DMSO at 1% and 10 µL of 60uM R848 in above DMEM, perform incubation under 37 °C in a CO2 incubator for 20 hrs. Then 20 µL of the supernatant from each well was incubated with 180 µL Quanti-blue substrate solution at 37°C for 2 hrs and the absorbance was read at 620∼655 nm using a spectrophotometer. The signalling pathway that TLR8 activation leads to downstream NF-κB activation has been widely accepted, and therefore similar reporter assay was modified for evaluating TLR8 antagonist.
With `C[C@@H]1CN(c2ccc(C#N)c3ncccc23)C[C@H](CN2Cc3ccc(N4C5CNCC4COC5)cc3C2)O1` [Example 46, 5-[(2R,6S)-2-methyl-6-[[5-(3-oxa-7,9-diazabicyclo[3.3.1]nonan-9-yl)isoindolin-2-yl]methyl]morpholin-4-yl]quinoline-8-carbonitrile], the IC50 is 19 nM.

`C[C@@H]1CN(c2ccc(C#N)n3nccc23)C[C@H](CN2CCc3cc(N4CCN(C)CC4)ccc3C2)O1` [Example 15, 4-[(2R,6S)-2-methyl-6-[[6-(4-methylpiperazin-1-yl)-3,4-dihydro-1H-isoquinolin-2-yl]methyl]morpholin-4-yl]pyrazolo[1,5-a]pyridine-7-carbonitrile]: the IC50 amounted to 21 nM.

Take `C[C@@H]1CN(c2ccc(C#N)c3nccnc23)C[C@H](CN2Cc3cnc(N4CCNCC4)cc3C2)O1` [Example 60, 8-[(2R,6S)-2-methyl-6-[(6-piperazin-1-yl-1,3-dihydropyrrolo[3,4-c]pyridin-2-yl)methyl]morpholin-4-yl]quinoxaline-5-carbonitrile]: the IC50 was below 3 nM.

On to `C[C@@H]1CN(c2ccc(Cl)c3ncccc23)C[C@H](CN2CCc3cc(N4CCNCC4)ccc3C2)O1` [Example 32, (2R,6S)-4-(8-chloro-5-quinolyl)-2-methyl-6-[(6-piperazin-1-yl-3,4-dihydro-1H-isoquinolin-2-yl)methyl]morpholine], for which the IC50 turned out to be 17 nM.

Turning to `C[C@@H]1CN(c2ccc(C#N)c3ncsc23)C[C@H](CN2Cc3ccc(N4CCNCC4)cc3C2)O1` [Example 23, 7-[(2R,6S)-2-methyl-6-[(5-piperazin-1-ylisoindolin-2-yl)methyl]morpholin-4-yl]-1,3-benzothiazole-4-carbonitrile], the IC50 was below 3 nM.

Regarding `C[C@@H]1CN(c2ccc3c(c2)CN(C[C@H]2CN(c4ccc(C#N)c5nccnc45)C[C@@H](C)O2)C3)CCN1` [Example 65, 8-[(2R,6S)-2-methyl-6-[[5-[(3R)-3-methylpiperazin-1-yl]isoindolin-2-yl]methyl]morpholin-4-yl] quinoxaline-5-carbonitrile], the IC50 was below 3 nM.

Take `CCOC(=O)C1CNCCN1c1ccc2c(c1)CN(C[C@H]1CN(c3ccc(C#N)c4ncccc34)C[C@@H](C)O1)C2` (stereo partly drawn) [Example 50, Ethyl 1-[2-[[(2S,6R)-4-(8-cyano-5-quinolyl)-6-methyl-morpholin-2-yl]methyl]isoindolin-5-yl] piperazine-2-carboxylate]: the IC50 stood at 33 nM.

With `C[C@@H]1CN(c2ccc(C#N)c3nccnc23)C[C@H](CN2Cc3ccc(N4CCN(C5CC5)CC4)cc3C2)O1` [Example 35, 8-[(2S,6R)-2-[[5-(4-cyclopropylpiperazin-1-yl)isoindolin-2-yl]methyl]-6-methyl-morpholin-4-yl]quinoxaline-5-carbonitrile], the IC50 was 9 nM.

Take `C[C@@H]1CN(c2ccc(C#N)c3ncccc23)C[C@H](CN2Cc3ccc(N4CC(N)C4)cc3C2)O1` [Example 77, 5-[(2S,6R)-2-[[5-(3-aminoazetidin-1-yl)isoindolin-2-yl]methyl]-6-methyl-morpholin-4-yl]quinoline-8-carbonitrile]: the IC50 was determined as 8 nM.

As to `C[C@@H]1CN(c2ccc(C#N)c3ncccc23)C[C@H](CN2Cc3ccc(N4CC5(CCN5)C4)cc3C2)O1` [Example 55, 5-[(2S,6R)-2-[[5-(1,6-diazaspiro[3.3]heptan-6-yl)isoindolin-2-yl]methyl]-6-methyl-morpholin-4-yl]quinoline-8-carbonitrile], the IC50 worked out at 7 nM.

Take `C[C@@H]1CN(c2ccc(C#N)n3nccc23)C[C@H](CN2CCc3cc(N4CCNCC4)ccc3C2)O1` [Example 10, 4-[(2R,6S)-2-methyl-6-[(6-piperazin-1-yl-3,4-dihydro-1H-isoquinolin-2-yl)methyl]morpholin-4-yl]pyrazolo[1,5-a]pyridine-7-carbonitrile]: the IC50 worked out at 52 nM.

Consider `C[C@@H]1CN(c2ccc(C#N)c3ncccc23)C[C@H](CN2Cc3ccc(N4CCNC[C@@H]4CO)cc3C2)O1` [Example 82, 5-[(2S,6R)-2-[[5-[(2R)-2-(hydroxymethyl)piperazin-1-yl]isoindolin-2-yl]methyl]-6-methyl-morpholin-4-yl]quinoline-8-carbonitrile], for which the IC50 came out at 14 nM.

Regarding `C[C@@H]1CN(c2ccc(C#N)c3ncccc23)C[C@H](CN2Cc3ccc(N4CC5COCC(C4)N5)cc3C2)O1` [Example 72, 5-[(2R,6S)-2-methyl-6-[[5-(3-oxa-7,9-diazabicyclo[3.3.1]nonan-7-yl)isoindolin-2-yl]methyl]morpholin-4-yl]quinoline-8-carbonitrile], the IC50 turned out to be 9 nM.

Take `C[C@@H]1CN(c2ccc(C#N)c3ncccc23)C[C@H](CN2Cc3ccc(N4CCNC[C@H]4CO)cc3C2)O1` [Example 83, 5-[(2S,6R)-2-[[5-[(2S)-2-(hydroxymethyl)piperazin-1-yl]isoindolin-2-yl]methyl]-6-methyl-morpholin-4-yl]quinoline-8-carbonitrile]: the IC50 was 20 nM.

As to `C[C@@H]1CN(c2ccc(C#N)c3ncccc23)C[C@H](CN2Cc3ccc(N4CCNCC4C(F)F)cc3C2)O1` (stereo partly drawn) [Example 76, 5-[(2S,6R)-2-[[5-[2-(difluoromethyl)piperazin-1-yl]isoindolin-2-yl]methyl]-6-methyl-morpholin-4-yl]quinoline-8-carbonitrile], the IC50 came to 4 nM.

With `C[C@@H]1CN(c2ccc(C#N)c3nccnc23)C[C@H](CN2Cc3ccc(N4CCN[C@@H](C)C4)cc3C2)O1` [Example 66, 8-[(2R,6S)-2-methyl-6-[[5-[(3S)-3-methylpiperazin-1-yl]isoindolin-2-yl]methyl]morpholin-4-yl]quinoxaline-5-carbonitrile], the IC50 is below 3 nM.

In the case of `C[C@@H]1CN(c2ccc(C#N)n3nccc23)C[C@H](CN2Cc3ccc(OCCN(C)C)cc3C2)O1` [Example 28, 4-[(2S,6R)-2-[[5-[2-(dimethylamino)ethoxy]isoindolin-2-yl]methyl]-6-methyl-morpholin-4-yl]pyrazolo[1,5-a]pyridine-7-carbonitrile], the IC50 amounted to 58 nM.

As to `C[C@@H]1CN(c2ccc(C#N)n3ncc(F)c23)C[C@H](CN2CCc3cc(N4CCNCC4)ccc3C2)O1` [Example 14, 3-fluoro-4-[(2R,6S)-2-methyl-6-[(6-piperazin-1-yl-3,4-dihydro-1H-isoquinolin-2-yl)methyl]morpholin-4-yl]pyrazolo[1,5-a]pyridine-7-carbonitrile], the IC50 is 29 nM.

As for `C[C@@H]1CN(c2ccc(C#N)c3ncccc23)C[C@H](CN2Cc3ccc(N4CCNCC4)cc3C2)O1` [Example 21, 5-[(2R,6S)-2-methyl-6-[(5-piperazin-1-ylisoindolin-2-yl)methyl]morpholin-4-yl]quinoline-8-carbonitrile], the IC50 was determined as 5 nM.

For the compound `C[C@@H]1CN(c2ccc(C#N)n3nccc23)C[C@H](CN2Cc3ccncc3C2)O1` [Example R2, 4-[(2S,6R)-2-(1,3-dihydropyrrolo[3,4-c]pyridin-2-ylmethy1)-6-methyl-morpholin-4-yl]pyrazolo[1,5-a]pyridine-7-carbonitrile, reference compound], the IC50 amounted to 784 nM.
